Tests used:
[1] = target: NAMPT (Homo sapiens, UniProt P43490); test: Time-Resolved Fluorescence Resonance Energy Transfer (TR-FRET) Binding Assay of NAMPT with PRPP; details: 2 nM NAMPT, 2 nM probe, 200 uM PRPP and 2.5 mM ATP, equilibrated 16 hours
In short: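 Binding measured by TR-FRET after a 16-hour equilibration meant to permit enzymatic compound modification. Substrates present at 200 uM PRPP and 2.5 mM ATP, with 2 nM enzyme, 2 nM probe, 1 nM Tb-anti-His antibody and 2% DMSO final.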

[2] = target: NAMPT (human, recombinant, C-terminally His-tagged) (Homo sapiens, UniProt P43490); test: Time-Resolved Fluorescence Resonance Energy Transfer (TR-FRET) Binding Assay of NAMPT; details: 6.8 nM NAMPT, 200 nM probe, equilibrated 3 hours, absence of substrates
In short: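 Probe displacement measured by TR-FRET (Ex 337 nm; 520/495 nm ratio) after 3 h room-temperature equilibration of compound with 6.8 nM His-tagged human NAMPT, 1 nM Tb-anti-His antibody and 200 nM Oregon Green 488 nicotinamide-site probe, pH 7.5 HEPES buffer, 2% DMSO. Control-normalized data fit four-parameter logistic for IC50.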

Sequence of NAMPT (human, recombinant, C-terminally His-tagged) (P43490 whole entry): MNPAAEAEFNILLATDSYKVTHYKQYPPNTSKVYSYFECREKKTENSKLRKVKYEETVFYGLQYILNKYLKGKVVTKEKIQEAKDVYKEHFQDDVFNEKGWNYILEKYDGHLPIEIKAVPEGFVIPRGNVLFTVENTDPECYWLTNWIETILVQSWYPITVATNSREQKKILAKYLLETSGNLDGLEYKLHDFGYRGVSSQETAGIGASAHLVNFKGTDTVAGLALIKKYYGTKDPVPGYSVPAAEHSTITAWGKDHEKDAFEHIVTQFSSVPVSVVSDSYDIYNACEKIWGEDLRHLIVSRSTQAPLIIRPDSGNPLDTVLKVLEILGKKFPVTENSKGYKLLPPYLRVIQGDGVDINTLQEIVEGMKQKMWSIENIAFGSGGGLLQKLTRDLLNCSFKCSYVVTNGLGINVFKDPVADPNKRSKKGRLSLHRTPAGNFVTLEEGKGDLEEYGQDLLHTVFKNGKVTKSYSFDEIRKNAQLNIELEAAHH
Sequence of NAMPT (P43490 whole entry): as above

Structure (SMILES) | IC50 [1] | IC50 [2]
CCCCC(=O)N1CCC(c2ccc(NC(=O)C3CN(c4cccnn4)C3)cc2)CC1 [Example 318, N-[4-(1-pentanoylpiperidin-4-yl)phenyl]-1-(pyridazin-3-yl)azetidine-3-carboxamide] | 0.716 nM | 37.7 nM
CC(C)C(=O)N1CCC(c2ccc(NC(=O)C3CN(c4cccnn4)C3)cc2)CC1 [Example 147, N-{4-[1-(2-methylpropanoyl)piperidin-4-yl]phenyl}-1-(pyridazin-3-yl)azetidine-3-carboxamide] | 1.47 nM | 34.6 nM
O=C(Nc1ccc(OC2CCN(C(=O)c3ccccn3)CC2)cc1)C1CN(c2ccnnc2)C1 [Example 296, 1-(pyridazin-4-yl)-N-(4-{[1-(pyridin-2-ylcarbonyl)piperidin-4-yl]oxy}phenyl)azetidine-3-carboxamide] | 57.1 nM | 149 nM
CCCCCC(=O)N1CCC(c2ccc(NC(=O)C3CN(c4cccnn4)C3)cc2)CC1 [Example 321, N-[4-(1-hexanoylpiperidin-4-yl)phenyl]-1-(pyridazin-3-yl)azetidine-3-carboxamide] | 0.864 nM | 38.7 nM
Cc1ccc(C(=O)N2CCC(c3ccc(NC(=O)C4CN(c5cccnn5)C4)cc3)CC2)c(C)c1 [Example 358, N-{4-[1-(2,4-dimethylbenzoyl)piperidin-4-yl]phenyl}-1-(pyridazin-3-yl)azetidine-3-carboxamide] | 0.815 nM | 15.9 nM
CC1(C(=O)N2CCC(Oc3ccc(NC(=O)C4CN(c5cccnc5)C4)cc3)CC2)CC1 [Example 66, N-[4-({1-[(1-methylcyclopropyl)carbonyl]piperidin-4-yl}oxy)phenyl]-1-(pyridin-3-yl)azetidine-3-carboxamide] | 0.535 nM | 56.6 nM
O=C(Nc1ccc(OC2CCN(C(=O)CN3CCOCC3)CC2)cc1)C1CN(c2cccnc2)C1 [Example 60, N-(4-{[1-(morpholin-4-ylacetyl)piperidin-4-yl]oxy}phenyl)-1-(pyridin-3-yl)azetidine-3-carboxamide] | 1.01 nM | 150 nM
N#Cc1cccc(C(=O)N2CCC(c3ccc(NC(=O)C4CN(c5cccnn5)C4)cc3)CC2)c1 [Example 352, N-{4-[1-(3-cyanobenzoyl)piperidin-4-yl]phenyl}-1-(pyridazin-3-yl)azetidine-3-carboxamide] | 0.615 nM | 95.8 nM

The remaining molecules from weak to strong by IC50 [1], led by results:

IC50 [1] | IC50 [2] | Structure (SMILES)
2.76 nM | 380 nM | O=C(Nc1ccc(C2CCN(C(=O)CC3CCCC3)CC2)cc1)[C@H]1CCN(c2cccnc2)C1 [Example 204, (3S)—N-{4-[1-(cyclopentylacetyl)piperidin-4-yl]phenyl}-1-(pyridin-3-yl)pyrrolidine-3-carboxamide]
2.49 nM | 1660 nM | O=C(Nc1ccc(OC2CCN(C(=O)C3CCOC3)CC2)cc1)[C@H]1CCN(c2cccnc2)C1 (stereo partly drawn) [Example 15, (3S)-1-(pyridin-3-yl)-N-(4-{[1-(tetrahydrofuran-3-ylcarbonyl)piperidin-4-yl]oxy}phenyl)pyrrolidine-3-carboxamide]
1.05 nM | 104 nM | CCOCCC(=O)N1CCC(Oc2ccc(NC(=O)C3CN(c4cccnc4)C3)cc2)CC1 [Example 39, N-(4-{[1-(3-ethoxypropanoyl)piperidin-4-yl]oxy}phenyl)-1-(pyridin-3-yl)azetidine-3-carboxamide]
0.459 nM | 17.6 nM | CC(C)CC(=O)N1CCC(c2ccc(NC(=O)C3CN(c4cccnc4)C3)cc2)CC1 [Example 137, N-{4-[1-(3-methylbutanoyl)piperidin-4-yl]phenyl}-1-(pyridin-3-yl)azetidine-3-carboxamide]
0.193 nM | 1.2 nM | O=C(Nc1ccc(C2CCN(C(=O)c3ccoc3)CC2)cc1)C1CN(c2cccnc2)C1 [Example 104, N-{4-[1-(furan-3-ylcarbonyl)piperidin-4-yl]phenyl}-1-(pyridin-3-yl)azetidine-3-carboxamide]
